test: Human HepG2 cell viability assay in 384 well format; assay type: toxicity, cell-based; parameters: dose 125 nL, time 70.5 hour; concentration not given beside the values; settings: HepG2 cells, read-out: Inhibition

Going from `Cc1nccc(CNC(=O)NCCOc2ccc(F)c(F)c2)n1` to `Cc1cc(-n2nnc(C(=O)O)c2-c2ccncc2)ccc1F`, the cytotoxicity at 70.5 h falls from -2.22% to -20%.

Going from `COc1cccc(CNC(=O)CN2CCCCC2Cn2cccn2)c1` (stereo not given) to `Cc1ccc2cc(C(=O)N3CCCC3Cn3cccn3)[nH]c2c1` (stereo not given), the cytotoxicity at 70.5 h rises from -7.75% to 24.4%.

Compared with `CC(C)(C)c1nc(CN2CCCC2Cn2cccn2)no1` (stereo not given), `Cn1cc(CN2CCO[C@H]3C(Cn4cccn4)CC[C@@H]32)cn1` (stereo not given in full) is lower in cytotoxicity at 70.5 h: 12.2% for the first, 2.67% for the second.

Going from `COCCN1CC(C(=O)Nc2ccc3c(c2)CCC(=O)N3C)CC1=O` (stereo not given) to `COCC[C@]1(O)CCN(C(=O)CCn2c(C)cccc2=O)C[C@H]1C`, the cytotoxicity at 70.5 h rises from 0.117% to 12.1%.

First: Cc1cc(C)cc(CCC(=O)N(C)CCc2cn[nH]c2)c1
Second: Cc1cc(C)cc(N(C)S(=O)(=O)c2cc3c(c(C(=O)O)c2)OCCO3)c1
The cytotoxicity at 70.5 h of the first is lower: -14.2% for the first, -12.8% for the second.

Compared with `CC(C)[C@@H]1CN(c2ccc(C(F)(F)F)cn2)C[C@H]1NS(C)(=O)=O`, `Cc1ccc(CN2C[C@@H]3COC[C@H](NS(C)(=O)=O)[C@@H]3C2)o1` is lower in cytotoxicity at 70.5 h: 21.5% for the first, -12.4% for the second.

Compared with `CC/C=C(/C)C(=O)N1CSCC1C(=O)NC1=NCCS1` (stereo not given), `Cc1nc(C)c(C(=O)Nc2cnn(CC(=O)NC3CCCC3)c2)s1` is higher in cytotoxicity at 70.5 h: -7.18% for the first, 14.1% for the second.

Compared with `CN(C)C(=O)CNC(=O)Nc1cccc(Cl)c1SC(F)F`, `COc1ccc(F)cc1NC(=O)NCC1(C)COC1` is higher in cytotoxicity at 70.5 h: -4.52% for the first, 0.338% for the second.

Going from `CC1(C)[C@H]2CC=C(CN3CCCn4nc(C(=O)NCCO)cc4C3)[C@@H]1C2` to `Cc1nc2sccn2c1C(=O)N1CCn2nc(C(=O)NC3CC3)cc2C1`, the cytotoxicity at 70.5 h falls from -4.77% to -11.6%.

Compared with `CC(C)c1nnc2n1CCN(C(=O)c1ccc3c(c1)NC(=O)CO3)C2`, `Cc1nnc2n1CCN(C(=O)c1cc(C)n(-c3ccccc3)c1C)C2` is lower in cytotoxicity at 70.5 h: -2.96% for the first, -4.87% for the second.

First: CCc1noc(C)c1C(=O)N1CCCN(Cc2csc(C)n2)CC1
Second: CN(C)c1ccc(C(=O)N2CCCN(Cc3cscn3)CC2)nn1
The cytotoxicity at 70.5 h of the first is lower: -9.45% for the first, 27.8% for the second.

Compared with `CCC(C)c1noc(C2CCN(C(=O)c3cccs3)CC2)n1` (stereo not given), `CCn1cc(C(=O)N2CCOC(c3nc(-c4cccs4)no3)C2)cn1` (stereo not given) is higher in cytotoxicity at 70.5 h: -10.7% for the first, -2.41% for the second.

Going from `Cc1nc(NC(=O)CN2CCOC(Cn3cccn3)C2)sc1C` (stereo not given) to `Cc1nn(C)c(C)c1C1CCCN1Cc1nc(-c2cccs2)no1` (stereo not given), the cytotoxicity at 70.5 h rises from -7.06% to -2%.

Compared with `CCNC(=O)C1CCCN(c2ccc3ccc(F)cc3n2)C1` (stereo not given), `CC(=O)NC1CCCN(Cc2ccc(-n3ccnc3)cc2)C1` (stereo not given) is lower in cytotoxicity at 70.5 h: 0.815% for the first, -4.74% for the second.

Compared with `N#Cc1ccc(S(=O)(=O)Nc2ccc(N3CCOCC3)cn2)cc1`, `N#Cc1ccc(S(=O)(=O)NC(=O)c2csc(-c3ccco3)n2)cc1` is lower in cytotoxicity at 70.5 h: 0.03% for the first, -2.89% for the second.

Going from `F[C@@H]1CN(Cc2ccccc2)C[C@@H]1OCc1nc2ccccc2[nH]1` to `c1ccc(CNC[C@H]2COCc3nc4cccnc4n32)cc1`, the cytotoxicity at 70.5 h rises from 0.621% to 11.9%.

First: CC(Cn1cccn1)NC(=O)NCCCN1CCc2ccccc21 (stereo not given)
Second: CCN1CCCC(C)(C(=O)NCc2nncn2CCc2ccccc2)C1 (stereo not given)
The cytotoxicity at 70.5 h of the first is higher: -0.512% for the first, -8.53% for the second.

Going from `CN(c1ccc(C#N)cn1)C1CCCN(Cc2noc(C3CC3)n2)C1` (stereo not given) to `c1ncn(CC2CCCN(Cc3csc(-c4ccsc4)n3)C2)n1` (stereo not given), the cytotoxicity at 70.5 h rises from -0.287% to 2.18%.

Compared with `CC(C)n1ccnc1CN1CCCN(C(=O)c2cccnc2O)CC1`, `CN(C)c1cc(CNC(=O)c2cccnc2O)ccn1` is lower in cytotoxicity at 70.5 h: 23.5% for the first, -12.1% for the second.

Going from `CC(C)c1nc(C2CCCN(c3ncccn3)C2)no1` (stereo not given) to `Cn1ccnc1-c1nc(N2CCCCC2)ncc1-c1ccccc1F`, the cytotoxicity at 70.5 h rises from -10.3% to -7.17%.

First: CN(CCNC(=O)c1ccnc(-n2ccnc2)c1)C1CC1
Second: CNCCCNC1CCN(c2ccc(-n3ccnc3)cc2)CC1
The cytotoxicity at 70.5 h of the first is higher: -1.87% for the first, -7.26% for the second.

First: CCNC(=O)N1CC[C@H]2CC(=O)N(CC(N)=O)CC[C@H]2C1
Second: CCn1cnnc1CNC(=O)N1CCCC1
The cytotoxicity at 70.5 h of the first is lower: -1.17% for the first, 5.61% for the second.

Going from `CN(C)C(=O)[C@H]1C[C@H]2OCC[C@H]2N(Cc2ccc(F)cc2)C1` to `CN(C)C(=O)C1CN(Cc2cccs2)CCN(S(C)(=O)=O)C1` (stereo not given), the cytotoxicity at 70.5 h rises from -7.16% to -5.12%.

Compared with `CCc1nc(CCNC(=O)NC2CC2)sc1C`, `CC(OCC1CC1)C(=O)Nc1nccn1Cc1ccccc1` (stereo not given) is lower in cytotoxicity at 70.5 h: 5.49% for the first, -14.6% for the second.

First: O=C(CN1CCCCC1)N1CCC(c2cc(=O)n3c(n2)CCCCC3)C1 (stereo not given)
Second: O=C(NCCCn1cncn1)N1CCC(N2CCCCC2)CC1
The cytotoxicity at 70.5 h of the first is higher: -1.74% for the first, -2.83% for the second.

Going from `CC(NC(=O)c1ccc2c(c1)COC2)c1cccc(N2CCOC2=O)c1` (stereo not given) to `Cc1ccccc1C1(CNC(=O)c2ccc(S(C)(=O)=O)cc2)CC1`, the cytotoxicity at 70.5 h rises from -0.257% to 3.63%.

First: O=C(c1cccnc1)N1CCC2(CC1)CN(c1ccccn1)CCO2
Second: CCS(=O)(=O)N1CCOC2(CCCN(c3ccccn3)C2)C1 (stereo not given)
The cytotoxicity at 70.5 h of the first is lower: -13.7% for the first, -2.6% for the second.

Going from `COc1coc(C(=O)Nc2nc(-c3ccncc3)cs2)cc1=O` to `O=C1CN(c2ccc(CNC(=O)c3cccnc3O)cc2F)CCN1`, the cytotoxicity at 70.5 h rises from -11.9% to -2.79%.

Compared with `O=C(N[C@@H]1CCN(Cc2cccc3nonc23)C[C@H]1O)c1cccnc1`, `CO[C@@H]1CCN(C(=O)Cc2ccsc2)[C@H]1Cc1cccnc1` is higher in cytotoxicity at 70.5 h: -13.7% for the first, -5.91% for the second.

Compared with `CCc1ccc(CC)c(NCc2cnc(N3CCOCC3)nc2)c1`, `COc1ccc(OC)c(C2CC(=O)Nc3nc(N4CCOCC4)sc32)c1` (stereo not given) is higher in cytotoxicity at 70.5 h: -2.91% for the first, 4.11% for the second.

First: O=C(c1cc(CC2(NCc3ccccc3)COC2)no1)N1CCCCC1
Second: O=C(c1cccc2c1OCO2)N1CCCC(n2cccn2)C1 (stereo not given)
The cytotoxicity at 70.5 h of the first is higher: -5.63% for the first, -9.01% for the second.

Going from `O=C(Nc1ccc2c(c1)OC1(CCCC1)O2)c1ccc(=O)[nH]n1` to `O=C(NCCOc1ccc2c(c1)OCO2)N1CCCC(CO)C1` (stereo not given), the cytotoxicity at 70.5 h falls from -6.98% to -10%.

Going from `Cc1cnn(C2CN(CC(O)c3ccc(F)cc3)C2)c1` (stereo not given) to `CCC(NC1CCCC1)c1ccc(S(C)(=O)=O)cc1` (stereo not given), the cytotoxicity at 70.5 h falls from -5.26% to -12.8%.

First: COc1ncccc1C(=O)N1C[C@@H]2COC[C@]2(CN(C)C)C1
Second: Cc1ccc(NC2CCN(C(=O)c3ccnc(N(C)C)c3)CC2)nn1
The cytotoxicity at 70.5 h of the first is higher: -1.76% for the first, -22.6% for the second.

Going from `CS(=O)(=O)CCn1ccc(NC(=O)Cc2ccccc2Cl)n1` to `Cc1ccc(S(=O)(=O)NCCNc2cc(-n3cccc3)ncn2)c(C)c1`, the cytotoxicity at 70.5 h rises from -1.99% to -0.584%.

Compared with `Cc1nnsc1CN(C)C(=O)c1ccc(CSc2nnc[nH]2)o1`, `O=C(O)CSc1nnc(-c2cn[nH]c2)n1-c1ccccc1C(F)(F)F` is higher in cytotoxicity at 70.5 h: -10.2% for the first, -3.6% for the second.

Compared with `c1cncc(CN(Cc2ccsc2)Cc2ccc(C3CCCCO3)o2)c1` (stereo not given), `Cc1nc(CN2CC[C@H](OCC3CC3)[C@@H]2Cc2cccnc2)cs1` is lower in cytotoxicity at 70.5 h: 6.4% for the first, -1.82% for the second.

First: Cc1ccc2c(c1)C(NC1CC1)CC21CCNCC1 (stereo not given)
Second: O=C(CS(=O)(=O)CC1CCCCC1)NC1CCCCNC1=O (stereo not given)
The cytotoxicity at 70.5 h of the first is higher: 11% for the first, -14.4% for the second.

Compared with `NC(=O)c1cn[nH]c1C1CCCN1C(=O)c1cnccn1` (stereo not given), `CC(C)c1ncc2c(n1)CN(Cc1cccc(C(N)=O)c1)CC2` is higher in cytotoxicity at 70.5 h: -10.1% for the first, -4.48% for the second.

First: COCCN(Cc1ccccn1)Cc1sccc1C
Second: O=C(NCC1CCCO1)C1CCN(Cc2nc(C3CC3)no2)CC1 (stereo not given)
The cytotoxicity at 70.5 h of the first is lower: -10.3% for the first, 3.81% for the second.

— ChEMBL document CHEMBL3507680, “University of Dundee, Gates Library screen for HepG2 cell viability”
